Consider 3 compounds from patent US20040254371A1, “New benzothiazine and benzothiadiazine compounds” (priority 2003, published 2004).

This experiment relates to AMPA receptors. The experiment is described as follows: Excitatory currents induced by AMPA in Xenopus oocytes (voltage-clamp). Format: cell-based. Particulars: Xenopus oocytes injected with rat cerebral cortex poly(A+) mRNA, AMPA 10 μM, 20-24° C. How it is done:
Study of the excitatory currents induced by AMPA in Xenopus oocytes
mRNA's are prepared from cerebral cortex of male Wistar rats by the guanidinium thiocyanate/phenol/chloroform method. The poly (A^+) mRNA's are isolated by chromatography on oligo-dT cellulose and injected at a level of 50 ng per oocyte. The oocytes are incubated for 2 to 3 days at 18° C. to permit expression of the receptors and are then stored at 8-10° C.
Electrophysiological recording is carried out in a Plexiglass® chamber at 20-24° C. in OR2 medium (J. Exp. Zool., 1973, 184, 321-334) by the “voltage-clamp” method using two electrodes, with a third electrode placed in the bath serving as reference.
All the compounds are applied via the incubation medium and the electric current is measured at the end of the application period. AMPA is used in a concentration of 10 μM. For each compound studied, the concentration that doubles (EC2X) or quintuples (EC5X) the intensity of the current induced by AMPA alone (5 to 50 nA) is determined.

Take `O=S1(=O)NC2CCCN2c2ccc(Oc3cccc(-c4ccoc4)c3)cc21` (stereo not drawn) [Example 17, 7-[3-(3-Furyl)phenoxy]-2,3,3a,4-tetrahydro-1H-pyrrolo[2,1-c][1,2,4]benzothiadiazine 5,5-dioxide]: the “EC2X (concentration that doubles the intensity of the current induced by AMPA alone)” value was 4.5 µM and the “EC5X (concentration that quintuples the intensity of the current induced by AMPA alone)” value was found to be 11.5 µM.
The matching figures for `O=S1(=O)NC2CCCN2c2ccc(Oc3cccc(-c4cnco4)c3)cc21` (stereo not drawn) [Example 18, 7-[3-(1,3-Oxazol-5-yl)phenoxy]-2,3,3a,4-tetrahydro-1H-pyrrolo-[2,1-c][1,2,4]benzothiadiazine 5,5-dioxide]: 0.66 µM and 4 µM.
As for `O=S1(=O)NC2CCCN2c2ccc(Oc3cccc(-c4nnn[nH]4)c3)cc21` (stereo not drawn) [Example 1, 7-[3-(1H-Tetrazol-5-yl)phenoxy]-2,3,3a,4-tetrahydro-1H-pyrrolo-[2,1-c][1,2,4]benzothiadiazine 5,5-dioxide], the “EC2X (concentration that doubles the intensity of the current induced by AMPA alone)” value was found to be 0.2 µM and the “EC5X (concentration that quintuples the intensity of the current induced by AMPA alone)” value came out at 0.8 µM.
